In test [1] the test system is Escherichia coli (ATCC25922). Briefly: MIC, broth microdilution (CLSI), Escherichia coli ATCC25922. (In general: In broth dilution the organism is exposed to a series of concentrations in liquid medium.)
Test [2] deals with Staphylococcus aureus subsp. aureus (ATCC29213). Briefly: MIC, broth microdilution (CLSI), Staphylococcus aureus subsp. aureus ATCC29213. In kind it is cell-based. As to conditions: ATCC29213, Table 15, read-out: S. aureus ("wound") (MIC).
In test [3] the test system is E. coli RNase P RNA, M1 RNA. Briefly: Inhibition of bacterial RNase P activity, IC50 determination (cleavage of pATSerUG by M1 RNA). In kind it is biochemical. The conditions noted are these: NI = No inhibition.
[4] abbreviates: ATCC25922, read-out: E. coli MIC, Table 15, NI = No inhibition.

SMILES strings stand for the structures. Converted amounts (≈) assume the structure as drawn. Counter-ions that a name gives are not always drawn. Like-named read-outs stand apart in the source and are kept apart here.

As to `Cl.Cl.NCCN(CCN)CCN1CCC(Nc2cc(C(F)(F)F)cc3c2Nc2ccc(Br)cc2S3)CC1` [compound 331, N1-(2-aminoethyl)-N1-(2-(4-((7-bromo-3-(trifluoromethyl)-10H-phenothiazin-1-yl)amino)piperidin-1-yl)ethyl)ethane-1,2-diamine hydrochloride], the MIC stood at 8 µg/mL in test [1] (setting [4]) and 4 µg/mL in test [2]. The same compound yielded an IC50 in test [3] of 5.1 µM.

For the compound `CC1CCN(c2ccc3c(c2)Sc2cc(C(F)(F)F)cc(NC4CCN(CCN)CC4)c2N3)C1.Cl.Cl` (stereo not shown) [compound 311, N-(1-(2-aminoethyl)piperidin-4-yl)-7-(3-methyl-pyrrolidin-1-yl)-3-(trifluoromethyl)-10H-phenothiazin-1-amine hydrochloride], the results for the MIC in test [1] (setting [4]) and in test [2] were 8 µg/mL and 2 µg/mL, respectively. The IC50 in test [3] was found to be 2.5 µM.

Consider `CCOC(=O)c1ccc2c(c1)Sc1cc(-c3cc4ccccc4[nH]3)ccc1N2CCCN` [compound 258, ethyl 10-(3-aminopropyl)-7-(1H-indol-2-yl)-10H-phenothiazine-3-carboxylate], for which the MIC in test [1] (setting [4]) turned out to be 128 µg/mL (≈ 289 µM); in test [2], 2 µg/mL (≈ 4.51 µM). In test [3], this compound had an IC50 of 24 µM.

As for `CC1CC(C)N1c1ccc2c(c1)Sc1cc(C(F)(F)F)cc(NC3CCN(CCN)CC3)c1N2.Cl` (stereo not shown) [compound 337, N-(1-(2-aminoethyl)piperidin-4-yl)-7-(2,4-dimethyl-azetidin-1-yl)-3-(trifluoromethyl)-10H-phenothiazin-1-amine hydrochloride], the MIC came out at 4 µg/mL in test [1] (setting [4]) and 2 µg/mL in test [2]. Moreover, 26 µM corresponded to half-maximal inhibition in test [3] (IC50).

In the case of `Cl.Cl.NCCN1CCC(Nc2cc(C(F)(F)F)cc3c2Nc2ccc(C(=O)N4CCCC4)cc2S3)CC1` [compound 293, (9-((1-(2-aminoethyl)piperidin-4-yl)amino)-7-(trifluoromethyl)-10H-phenothiazin-3-yl)(pyrrolidin-1-yl)methanone hydrochloride], the values for the MIC in test [1] (setting [4]) and in test [2] were 16 µg/mL and 8 µg/mL, respectively. Half-maximal inhibition in test [3] (IC50) required 62 µM.

`Cl.NCCN1CCC(Nc2cc(C(F)(F)F)cc3c2Nc2ccc(N4CC5(CCC5)C4)cc2S3)CC1` [compound 325, N-(1-(2-aminoethyl)piperidin-4-yl)-7-(2-azaspiro [3.3]heptan-2-yl)-3-(trifluoromethyl)-10H-phenothiazin-1-amine hydrochloride]: the results for the MIC in test [1] (setting [4]) and in test [2] were 8 µg/mL and 2 µg/mL, respectively. For the same compound, half-maximal inhibition in test [3] (IC50) was put at 6.4 µM.

As to `CC1CCN(c2ccc3c(c2)Sc2cc(C(F)(F)F)cc(NC4CCN(CCN)CC4)c2N3)C1C.Cl` (stereo not shown) [compound 336, N-(1-(2-aminoethyl)piperidin-4-yl)-7-(2,3-dimethyl-pyrrolidin-1-yl)-3-(trifluoromethyl)-10H-phenothiazin-1-amine hydrochloride], the results for the MIC in test [1] (setting [4]) and in test [2] were 4 µg/mL and 1 µg/mL, respectively. Further, half-maximal inhibition in test [3] (IC50) required 19 µM.

With `Cl.Cl.NCCN1CCC(Nc2cc(C(F)(F)F)cc3c2Nc2ccc(N4CCC(F)(F)C4)cc2S3)CC1` [compound 303, N-(1-(2-aminoethyl)piperidin-4-yl)-7-(3,3-difluoro-pyrrolidin-1-yl)-3-(trifluoromethyl)-10H-phenothiazin-1-amine hydrochloride], the values for the MIC in test [1] (setting [4]) and in test [2] were 32 µg/mL and 8 µg/mL, respectively. In test [3], this compound gave an IC50 of 9.7 µM.

As for `Cl.NCCNCCCNc1cc(C(F)(F)F)cc2c1Nc1ccccc1S2` [compound 297, N1-(2-aminoethyl)-N3-(3-(trifluoromethyl)-10H-phenothiazin-1-yl)propane-1,3-diamine hydrochloride], the MIC was determined as 32 µg/mL in test [1] (setting [4]) and 16 µg/mL in test [2]. Further, in test [3], the IC50 is 43 µM.

Take `Cl.NC1CCCC(C(=O)Nc2cc(C(F)(F)F)cc3c2Nc2ccc(N4CCCC4)cc2S3)C1` (stereo not shown) [compound 294, 3-amino-N-(7-(pyrrolidin-1-yl)-3-(trifluoromethyl)-10H-phenothiazin-1-yl)cyclohexane-1-carboxamide hydrochloride]: the values for the MIC in test [1] (setting [4]) and in test [2] were 64 µg/mL and 8 µg/mL, respectively. Moreover, in test [3], 2.4 µM corresponded to half-maximal inhibition (IC50).

As to `Cl.Cl.NC1CCCC(C(=O)Nc2cc(C(F)(F)F)cc3c2Nc2ccc(Br)cc2S3)C1` (stereo not shown) [compound 312, 3-amino-N-(7-bromo-3-(trifluoromethyl)-10H-phenothiazin-1-yl)cyclohexane-1-carboxamide hydrochloride], the MIC in test [1] (setting [4]) was 16 µg/mL; in test [2] it was 2 µg/mL. The compound further registered an IC50 in test [3] of 12 µM.

Turning to `FC(F)(F)c1cc(NC2CCNCC2)c2c(c1)Sc1cc(N3CCNCC3)ccc1N2` [compound 270, 7-(piperazin-1-yl)-N-(piperidin-4-yl)-3-(trifluoromethyl)-10H-phenothiazin-1-amine hydrochloride], the MIC in test [1] (ATCC25922, read-out: E. coli MIC) was found to be 128 µg/mL; in test [2], 32 µg/mL.

Regarding `Cl.Cl.Cl.NCCCN1c2ccc(Br)cc2Sc2cc(N3CCN(CCN)CC3)ccc21` [compound 278, 3-(3-(4-(2-aminoethyl)piperazin-1-yl)-7-bromo-10H-phenothiazin-10-yl)propan-1-amine hydrochloride], the MIC in test [1] (setting [4]) came out at 128 µg/mL; in test [2], 32 µg/mL.

With `Cl.NCCN1CCC(Nc2cc(C(F)(F)F)cc3c2Nc2cc(N4CCCC4)ccc2S3)CC1` [compound 356, N-(1-(2-aminoethyl)piperidin-4-yl)-8-(pyrrolidin-1-yl)-3-(trifluoromethyl)-10H-phenothiazin-1-amine hydrochloride], the MIC worked out at 32 µg/mL in test [1] (setting [4]) and 16 µg/mL in test [2].

With `Cl.Cl.NCCN1CCC(Nc2cc(C(F)(F)F)cc3c2Nc2ccc(Br)cc2S3)CC1` [compound 282, N-(1-(2-aminoethyl)piperidin-4-yl)-7-bromo-3-(trifluoromethyl)-10H-phenothiazin-1-amine hydrochloride], the MIC was 8 µg/mL in test [1] (setting [4]) and 4 µg/mL in test [2].

For `CC(C)C1CCCN(c2ccc3c(c2)Sc2cc(C(F)(F)F)cc(NC4CCN(CCN)CC4)c2N3)C1.Cl.Cl.Cl` (stereo not shown) [compound 320, N-(1-(2-aminoethyl)piperidin-4-yl)-7-(3-isopropyl-piperidin-1-yl)-3-(trifluoromethyl)-10H-phenothiazin-1-amine hydrochloride], the MIC in test [1] (setting [4]) came out at 32 µg/mL; in test [2], 4 µg/mL.

On to `NC1CCCC(C(=O)Nc2cc(C(F)(F)F)cc3c2Nc2ccncc2S3)C1` (stereo not shown) [compound 257, 3-amino-N-(8-(trifluoromethyl)-5H-benzo[e]pyrido[3,4-b][1,4]thiazin-6-yl)cyclohexanecarboxamide], for which the MIC was found to be 128 µg/mL (≈ 313 µM) in test [1] (setting [4]) and 64 µg/mL (≈ 157 µM) in test [2].

`Cl.Cl.NCCN1CCC(Nc2cc(C(F)(F)F)cc3c2Nc2ccc(N4CCC(N)CC4)cc2S3)CC1` [compound 272, N-(1-(2-aminoethyl)piperidin-4-yl)-7-(4-aminopiperidin-1-yl)-3-(trifluoromethyl)-10H-phenothiazin-1-amine]: the MIC turned out to be 32 µg/mL in test [1] (setting [4]) and 16 µg/mL in test [2].

As for `Cl.FC(F)(F)c1cc(NC2CCN(CCN3CCNCC3)CC2)c2c(c1)Sc1cc(Br)ccc1N2` [compound 319, 7-bromo-N-(1-(2-(piperazin-1-yl)ethyl)piperidin-4-yl)-3-(trifluoromethyl)-10H-phenothiazin-1-amine hydrochloride], the MIC in test [1] (setting [4]) and in test [2] was 8 µg/mL each time.

In general, MIC refers to the smallest concentration in the dilution series that meets the test's criterion for growth inhibition. As usually defined, the IC50 is the midpoint of a concentration-inhibition curve. High values mean a need for much substance, low ones inhibition by little substance.

These data come from patent US11130741B2 (Bioimics AB, priority 2016, dated 2021).
